Measurements taken from patent publication EP4461294A1, “LIPOLYTIC AND ANTIADIPOGENIC COUMARIN DERIVATIVES” (Karl-Franzens-Universität Graz, priority 2023, dated 2024).

Tests used:
Type in all cases: cell-based
mature 3T3-L1 cells [1] = test: Forskolin-stimulated lipolysis, release of free fatty acids into the medium; conditions: for forskolin-induced lipolysis: 3 h
Protocol: (§1) 3T3-L1 preadipocytes were seeded onto 6-well plates and cultured in DMEM (D5796; high glucose) supplemented with 10% fetal bovine serum, penicillin, and streptomycin at 37 °C in 5% CO2 atmosphere and 80% humidity. Differentiation of cells were performed for 10 days as described in 2.4. Mature adipocytes were washed twice in low glucose containing DMEM (D4947). Lipolysis was induced by addition of the adenylyl cyclase activator forskolin (10 µM) and cells were incubated in medium containing 2% fatty acid-free BSA for up to 6 h in the absence and presence of coumarins. In basal lipolysis experiments, forskolin was excluded. Aliquots of the medium were collected and release of free fatty acids (FFAs) was measured using the NEFA Assay Kit from FUJIFILM Wako Chemicals Europe GmbH (Neuss, Germany) (ASC-ACOD method) according to the manufacturer's instructions.

AMPK = test: Western blot, expression and phosphorylation of AMPK, short-term experiments in 3T3-L1 cells; conditions: 10 µg/ml, short-term (24 h), compared to controls
Protocol: (§2) 3T3-L1 preadipocytes were cultured in DMEM (D5796, high glucose) supplemented with 10% FBS, penicillin, and streptomycin at 37 °C in 5% CO2 atmosphere and 80% humidity. For long-term experiments, cells were seeded onto 6-well plates and grown to confluence. Adipogenesis was induced 48 h post confluence (day 0) by addition of culture medium containing […], […] dexamethasone, and 500 µM 3-isobutyl-1-methylxan-thine (IBMX). Experiments were performed in the absence and presence of increasing concentrations of ethanolic citrus extracts (total peel, flavedo and albedo layers) or commercially available citropten, bergamottin and 5-geranyloxy-7-methox-ycoumarin. Ethanol (0.1%) served as vehicle. At days 3 and 5, medium was replaced by fresh medium supplemented with 10 pg/ml and 0.2 ug/ml insulin, respectively, with and without compounds. At day 7, adipogenesis was terminated by harvest of cells. In a short-term approach, differentiation was performed for 24 h. […]
(§3) Lysates were denaturated by boiling with 5-fold Laemmli buffer for 10 min at 95 °C. […] After incubation of membranes with respective horseradish peroxidase-conjugated IgGs immunoreactive bands were visualized using Western Bright™ ECL or Western Bright™ Quantum substrates (Biozym, Austria) and chemiluminescence was quantified with the Fusion SL Imaging System (VWR International GmbH).

C/EBPβ [2] = test: Dual luciferase reporter assay, transcriptional activity of C/EBPβ in HEK293 cells; conditions: 24 h; for transcriptional activity of C/EBPβ: 10 µg/ml
Protocol: (§4) At 80-90% confluence, HEK293 cells were co-transfected with C/EBPβ or C/EBPδ DNA (1 µg each) and Cignal Reporter (0,5 µg) in serum- and antibiotic-free medium using TurboFect™ Transfection Reagent (ThermoFisher Scientific). Cells were incubated for 24 h in the absence and presence of citropten, bergamottin or 5-geranyloxy-7-methoxycoumarin. Thereafter, cells were harvested and lysed according to the manufacturer's instructions. Activities of firefly luciferase and Renilla luciferase were sequentially measured as biolumi-nescence using the GloMax Discover System GM3000 (Promega) as described. Luminescence of each sample was normalized to Renilla luciferase activity.

C/EBPδ [3] = test: Dual luciferase reporter assay, transcriptional activity of C/EBPδ in HEK293 cells; conditions: 10 µg/ml, 24 h
Protocol: as §4, with “Transcriptional activities of C/EBPβ and C/EBP6 were measured using the C/EBP Cignal™ Reporter Assay (CCS-001L; dual luc) from Qiagen (Germany) and the Dual-Luciferase® Reporter Assay System (E1910; Promega Corporation, Germany) as recently described (Mussbacher et al., 2019, Sci Rep, 9(1), 15403. https://doi.org/10.1038/s41598-019-51579-x). pcDNA-mC/EBPβ (Addgene plasmid # 49198) and pcDNA-mC/EBP6 (Addgene plasmid #12559) were gifts from Jed Friedman and Peter Johnson, respectively. At” for “At”

PPARγ = test: Western blot, protein expression of PPARγ during adipogenesis of 3T3-L1 cells; conditions: adipogenesis terminated at day 7, increasing concentrations
Protocol: as §2, §3

C/EBPβ [4] = test: Western blot, protein expression of C/EBPβ (isoforms LAP*, LAP, LIP) in 3T3-L1 cells; conditions: for protein expression of C/EBPβ (isoforms LAP*, LAP and LIP): 10 µg/ml each
Protocol: 3T3-L1 preadipocytes were cultured in DMEM (D5796, high glucose) supplemented with 10% FBS, penicillin, and streptomycin at 37 °C in 5% CO2 atmosphere and 80% humidity. For long-term experiments, cells were seeded onto 6-well plates and grown to confluence. Adipogenesis was induced 48 h post confluence (day 0) by addition of culture medium containing […], 0.4 pg/ml dexamethasone, and 500 µM 3-isobutyl-1-methylxan-thine (IBMX). Experiments were performed in the absence and presence of increasing concentrations of ethanolic citrus extracts (total peel, flavedo and albedo layers) or commercially available citropten, bergamottin and 5-geranyloxy-7-methox-ycoumarin. Ethanol (0.1%) served as vehicle. At days 3 and 5, medium was replaced by fresh medium supplemented with 10 pg/ml and 0.2 ug/ml insulin, respectively, with and without compounds. At day 7, adipogenesis was terminated by harvest of cells. In a short-term approach, differentiation was performed for 24 h. Cells were harvested by treatment with RIPA buffer (#R0278, Sigma) containing EDTA (2 mM) and cOmplete Protease Inhibitor Cocktail (total volume of 150 µl per well) and scraped off mechanically. Cell suspensions were transferred to Eppendorf vials, homogenized by repeated sonication, and kept on ice for 10 min. Aliquots were stored at 4 °C for measurement of triglycerides (TGs) and total cellular protein content. For Western blot experiments homogenates were stored at -80 °C.
Lysates were denaturated by boiling with 5-fold Laemmli buffer for 10 min at 95 °C. Samples containing 15 µg of protein were separated by SDS-PAGE on 8-12% gels for 45 min at 180 V. Thereafter, proteins were transferred onto nitrocellulose membranes for 90 min (240 mA). After blocking with Tris-buffered saline containing 0.1% (v/v) Tween-20 and 5% non-fat dry milk for 1 h (ambient temperature) membranes were incubated overnight at 4 °C with primary antibodies. After incubation of membranes with respective horseradish peroxidase-conjugated IgGs immunoreactive bands were visualized using Western Bright™ ECL or Western Bright™ Quantum substrates (Biozym, Austria) and chemiluminescence was quantified with the Fusion SL Imaging System (VWR International GmbH).

C/EBPα = test: Western blot, protein expression of C/EBPα during adipogenesis of 3T3-L1 cells; conditions: adipogenesis terminated at day 7, increasing concentrations
Protocol: as §2, §3

[5] = test system: acetyl-CoA carboxylase (ACC); test: Western blot, expression and phosphorylation of ACC, short-term experiments in 3T3-L1 cells
Protocol: as §2, §3

C/EBPδ [6] = test: Western blot, protein expression of C/EBPδ in 3T3-L1 cells; conditions: 10 pg/ml each
Protocol: as §2, §3

mature 3T3-L1 cells [7] = test: Basal lipolysis, release of free fatty acids into the medium (forskolin excluded); design: dose or concentration left out as unconfirmed; conditions: without forskolin, 3 h
Protocol: as §1

| Structure (SMILES) | forskolin-induced lipolysis (mature 3T3-L1 cells [1]; 56 µM (10 µg/ml)) | phosphorylation of AMPK at Thr172 (AMPK) | transcriptional activity of C/EBPβ (C/EBPβ [2]) | transcriptional activity of C/EBP6 (C/EBPδ-dependent transcriptional activity) (C/EBPδ [3]) | protein expression of PPARγ (PPARγ) | protein expression of C/EBPβ (isoforms LAP*, LAP and LIP) (C/EBPβ [4]) | protein expression of C/EBPα (C/EBPα) | protein expression of C/EBP6 (C/EBPδ [6]) | other results |
| --- | --- | --- | --- | --- | --- | --- | --- | --- | --- |
| COc1cc2oc(=O)ccc2cc1O [isoscopoletin, 6-hydroxy-7-methoxy-2H-chromen-2-one] | did not significantly enhance |  |  |  |  |  |  |  |  |
| COc1ccc2ccc(=O)oc2c1 [herniarin, 7-methoxy-2H-chromen-2-one] |  |  |  |  |  |  |  |  | forskolin-induced lipolysis (mature 3T3-L1 cells [1]; 141 µM (25 µg/ml)): did not significantly enhance |
| O=c1ccc2cc(O)c(O)cc2o1 [esculetin, 6,7-dihydroxy-2H-chromen-2-one] | did not significantly enhance |  |  |  |  |  |  |  |  |
| CC(C)=CCC/C(C)=C/COc1c2ccoc2cc2oc(=O)ccc12 [bergamottin, 4-[(2E)-3,7-dimethylocta-2,6-dienoxy]furo[3,2-g]chromen-7-one] |  | significantly increased | not affected | not affected | concentration-dependently suppressed | not affected | concentration-dependently suppressed | not affected | forskolin-induced lipolysis (mature 3T3-L1 cells [1]; 30 µM (10 µg/ml)): did not significantly enhance; phosphorylation of ACC (Ser79) ([5]; 10 µg/ml, short-term experiments, p<0.05 vs vehicle-treated cells): significantly increased |
| COc1cc(OC/C=C(\C)CCC=C(C)C)c2ccc(=O)oc2c1 [5-geranyloxy-7-methoxycoumarin, 5-[(2E)-3,7-dimethylocta-2,6-dienoxy]-7-methoxychromen-2-one] |  | more than doubled | not affected | tendency to decrease | concentration-dependently suppressed | not affected | concentration-dependently suppressed | not affected | transcriptional activity of C/EBP6 (C/EBPδ-dependent transcriptional activity) (C/EBPδ [3]; listed as 5-geranyloxy-7-methoxy-coumarin): not affected; fold induction at 10 µg/mL ([5]; Mus musculus, 3T3-L1, short-term (24 h), compared to controls, read-out: phosphorylation of acetyl-CoA carboxylase (ACC) at Ser79): ~3 |
| COc1cc(OC)c2ccc(=O)oc2c1 [citropten, 5,7-dimethoxy-2H-chromen-2-one] |  |  |  |  |  |  |  |  | basal release of FFAs (mature 3T3-L1 cells [7]): increased; activity of C/EBPβ (C/EBPβ [2]; citropten 25 µg/ml): increased; forskolin-induced lipolysis (mature 3T3-L1 cells [1]; 10 pg/ml (≈ 48 µM)): significant effect; activity at 120 µM (mature 3T3-L1 cells [1]; Mus musculus, 3T3-L1, 25 µg/ml (≈ 120 µM), 3-4 h after induction of lipolysis, read-out: effect on forskolin-stimulated lipolysis (release of FFAs), maximal): 185 to 190%; forskolin-stimulated lipolysis (mature 3T3-L1 cells [1]; forskolin 10 µM, time- and concentration-dependent manner): enhanced; release of FFAs (mature 3T3-L1 cells [1]; forskolin-stimulated, 25 µg/ml (≈ 120 µM), within 0.5 and 6 h): significantly increased; expression of LIP (C/EBPβ [4]; 25 µg/ml, p<0.05 vs vehicle-treated cells): significantly upregulated; protein expression of C/EBPβ (C/EBPβ [4]; citropten 25 µg/ml): increased |
